Test results reported in PMC8593015 (Scientific Reports, 2021).
Values joined by “and” are separate entries in the source; they are usually repeats but may differ in a detail not shown here. Equal entries are not always repeated.

Legend:
M. tb EgtD = biological target: T1, M. tb EgtD (Mycobacterium tuberculosis, UniProt P9WN47); experiment: biochemical
T1 construct: thioredoxin (N, cleaved yes); polyhistidine (N, cleaved yes); made in house; host or cells: E. coli (T7 cells), pET32-derived vector
T1 sequence (P9WN47 1-321): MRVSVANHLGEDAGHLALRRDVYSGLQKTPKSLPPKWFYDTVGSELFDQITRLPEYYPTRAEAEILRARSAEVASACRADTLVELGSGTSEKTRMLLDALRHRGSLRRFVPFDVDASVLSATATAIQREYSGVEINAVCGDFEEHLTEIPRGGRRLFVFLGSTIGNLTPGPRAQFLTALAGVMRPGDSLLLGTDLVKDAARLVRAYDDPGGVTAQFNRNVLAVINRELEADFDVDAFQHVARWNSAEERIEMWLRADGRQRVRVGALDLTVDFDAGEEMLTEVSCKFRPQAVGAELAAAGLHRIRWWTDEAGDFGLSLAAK

[1] = system: Mycobacterium marinum (M. marinum); conditions: cited from earlier work
M. tb = system: M. tb; design: method as in PMID 22100163, PMID 24586159, PMID 22988030; conditions: macrophage cells and infected mice; cited from earlier work

SMILES | EC50 (M. tb EgtD) | also measured
CS(=O)(=O)c1ccc(-c2nc(-c3ccc(F)cc3)c(-c3ccncc3)[nH]2)cc1 [Cay-10571, reference compound] | < 20 µM and 7 µM | 
O=C(O)CNc1cccc(C(=O)NCCc2c[nH]cn2)c1 [HD1] | 89 ± 19 µM | 
O=C(O)C(Cc1cnc[nH]1)n1cccc1 (centres unmarked) [HD2] | 33 ± 3 µM | 
O=C(O)C(Cc1cnc[nH]1)NC(=S)NCc1ccccc1 (centres unmarked) [HD3] | 47 ± 5 µM | 
CCOc1ccccc1CN(CC)C(=O)[C@H](N)Cc1c[nH]cn1 [HD4] | 25 ± 4 µM | 
CN(Cc1ccc(Oc2ccccc2)cc1)C(=O)[C@H](N)Cc1c[nH]cn1 [HD5] | 30 ± 3 µM | 
O=C(N[C@@H](Cc1c[nH]cn1)C(=O)O)C1CC=CC1 [HD6] | 85 ± 19 µM | fold decrease in inhibitory activity versus HD2 and HD3 (M. tb EgtD; ratio of EC50 values): 1.5–2.5 fold
CN(C)CCN(Cc1cnc[nH]1)C(=O)CN(C)Cc1ccccc1 [HD7] | 85 ± 12 µM | 
Cc1ccc(C(C)C(=O)N(CCN(C)C)Cc2cnc[nH]2)cc1 (centres unmarked) [HD8] | 160 ± 60 µM | 
CCOc1ccccc1OCCN(C)Cc1cnc[nH]1 [HD9] | 36 ± 4 µM | 
Cc1cccc(C(C(=O)NCCc2c[nH]cn2)N(C)C)c1 (centres unmarked) [HD10] | 32 ± 4 µM | 
Cc1ccc(NC(=O)c2ccc(CN3CCN(C)CC3)cc2)cc1Nc1nccc(-c2cccnc2)n1 [Imatinib] |  | effect of combination with Rifampicin ([1]; M. marinum-infected macrophage cells, Imatinib and Rifampicin): synergistic effect; intracellular replication of M. marinum ([1]; macrophage cells and infected mice): decrease in the intracellular replication; intracellular replication of M. tb (M. tb): decrease in the intracellular replication
O=c1cc(N2CCOCC2)oc2c1ccc1ccccc12 [NU-7026, reference compound] | < 20 µM and 5.4 µM | 
Cc1cc(C(C)Nc2ccccc2)c2nc(N3CCOCC3)cc(=O)n2c1 (centres unmarked) [TGX-221, reference compound] | < 20 µM and 15.2 µM | 
